These results are taken from patent US6620815B1, “Oxazolidinones and uses thereof” (Synaptic Pharmaceutical Corporation, priority 1997, dated 2003).

Data set [1] has as its target T1, cloned human α1B receptor (Homo sapiens, UniProt P35368).
T1 sequence (P35368 1-520): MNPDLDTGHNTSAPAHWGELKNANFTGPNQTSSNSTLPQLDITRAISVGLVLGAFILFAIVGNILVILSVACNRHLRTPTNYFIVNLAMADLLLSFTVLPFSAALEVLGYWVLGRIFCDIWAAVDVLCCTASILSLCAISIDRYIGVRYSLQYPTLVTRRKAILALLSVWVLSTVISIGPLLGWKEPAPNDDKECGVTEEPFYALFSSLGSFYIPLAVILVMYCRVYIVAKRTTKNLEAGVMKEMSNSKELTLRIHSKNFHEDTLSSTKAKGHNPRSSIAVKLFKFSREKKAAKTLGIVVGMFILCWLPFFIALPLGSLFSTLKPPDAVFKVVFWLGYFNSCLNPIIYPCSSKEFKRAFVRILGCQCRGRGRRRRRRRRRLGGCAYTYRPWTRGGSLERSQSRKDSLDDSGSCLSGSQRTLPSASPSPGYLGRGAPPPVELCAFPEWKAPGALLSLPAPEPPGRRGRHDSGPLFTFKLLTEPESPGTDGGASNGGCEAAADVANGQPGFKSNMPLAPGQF
Description: Radioligand binding assay, [3H] prazosin displacement, cloned human α1B receptor. The settings on record: [3H] prazosin 0.5 nM, membrane preparations of transfected LM(tk-) cells; read-out: hα1B Ki. As to the method:
(§1) These cell lines were prepared by transfecting the cloned cDNA or cloned genomic DNA or constructs containing both genomic DNA and cDNA encoding the human α-adrenergic receptors as follows:
The construct involved ligating the full-length containing EcoRI brainstem cDNA fragment from λ ZapII into the expression vector. Stable cell lines were selected as described above.
(§2) Transfected cells from culture flasks were scraped into 5 ml of 5 mM Tris-HCl, 5 mM EDTA, pH 7.5, and lysed by sonication. The cell lysates were centrifuged at 1000 rpm for 5 min at 4° C., and the supernatant was centrifuged at 30,000×g for 20 min at 4° C. The pellet was suspended in 50 mM Tris-HCl, 1 mM MgCl2, and 0.1% ascorbic acid at pH 7.5. Binding of the α1 antagonist [^3H] prazosin (0.5 nM, specific activity 76.2 Ci/mmol) to membrane preparations of LM(tk−) cells was done in a final volume of 0.25 ml and incubated at 37° C. for 20 min. Nonspecific binding was determined in the presence of 10 μM phentolamine. The reaction was stopped by filtration through GF/B filters using a cell harvester.

Data set [2] deals with T2, cloned human α1D receptor (Homo sapiens, UniProt P25100).
T2 sequence (P25100 1-572): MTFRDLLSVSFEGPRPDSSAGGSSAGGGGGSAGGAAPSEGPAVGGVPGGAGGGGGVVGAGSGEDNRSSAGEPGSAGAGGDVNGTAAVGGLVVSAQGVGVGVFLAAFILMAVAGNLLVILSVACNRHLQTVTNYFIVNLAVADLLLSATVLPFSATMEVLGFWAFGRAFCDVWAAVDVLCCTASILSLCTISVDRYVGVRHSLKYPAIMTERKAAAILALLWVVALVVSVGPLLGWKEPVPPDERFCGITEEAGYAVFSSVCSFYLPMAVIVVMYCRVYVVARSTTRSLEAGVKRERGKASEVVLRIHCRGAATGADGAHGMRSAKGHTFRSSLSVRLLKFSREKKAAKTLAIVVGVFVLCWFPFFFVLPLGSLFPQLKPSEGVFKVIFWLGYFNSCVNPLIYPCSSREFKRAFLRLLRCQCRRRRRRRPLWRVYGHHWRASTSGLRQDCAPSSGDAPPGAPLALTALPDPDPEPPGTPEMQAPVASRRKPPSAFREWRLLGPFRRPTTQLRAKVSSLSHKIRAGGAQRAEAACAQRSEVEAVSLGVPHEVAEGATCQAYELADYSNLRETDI
The data set can be described thus: Radioligand binding assay, [3H] prazosin displacement, cloned human α1D receptor. The settings on record: [3H] prazosin 0.5 nM, membrane preparations of transfected LM(tk-) cells; read-out: hα1D Ki. As to the method: as §1
The cells were grown, in a controlled environment (37° C., 5% CO2), as monolayers in Dulbecco's modified Eagle's Medium (GIBCO, Grand Island, N.Y.) containing 25 mM glucose and supplemented with 10% bovine calf serum, 100 units/ml penicillin g, and 100 μg/ml streptomycin sulfate.
as §2

The target of data set [3] is T3, cloned human α1A receptor (Homo sapiens, UniProt P35348).
T3 sequence (P35348 1-466): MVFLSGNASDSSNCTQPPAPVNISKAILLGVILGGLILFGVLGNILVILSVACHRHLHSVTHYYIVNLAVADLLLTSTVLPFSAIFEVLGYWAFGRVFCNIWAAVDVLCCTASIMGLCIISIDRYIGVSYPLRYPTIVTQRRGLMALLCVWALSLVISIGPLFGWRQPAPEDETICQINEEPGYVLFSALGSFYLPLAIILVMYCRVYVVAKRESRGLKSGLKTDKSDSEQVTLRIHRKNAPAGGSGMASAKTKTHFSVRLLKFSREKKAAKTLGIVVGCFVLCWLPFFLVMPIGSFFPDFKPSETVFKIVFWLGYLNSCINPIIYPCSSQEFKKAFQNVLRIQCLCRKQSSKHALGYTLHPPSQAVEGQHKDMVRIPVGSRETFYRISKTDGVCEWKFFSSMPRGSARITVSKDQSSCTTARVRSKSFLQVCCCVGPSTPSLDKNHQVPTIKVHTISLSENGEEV
Description: Radioligand binding assay, [3H] prazosin displacement, cloned human α1A receptor. Particulars: [3H] prazosin 0.5 nM, membrane preparations of transfected LM(tk-) cells; read-out: hα1A Ki. As to the method: as §1
The construct involved ligating three partial overlapping fragments: a 5′ 0.6 kb HincII genomic clone, a central 1.8 EcoRI hippocampal cDNA clone, and a 3′ 0.6 Kb PstI genomic clone. The hippocampal cDNA fragment overlaps with the 5′ and 3′ genomic clones so that the HincII and PstI sites at the 5′ and 3′ ends of the cDNA clone, respectively, were utilized for ligation. This full-length clone was cloned into the KpnI site of the expression vector, using the 5′ and 3′ KpnI sites of the fragment, derived from vector (i.e., pBluescript) and 3′-untranslated sequences, respectively. Stable cell lines were selected as described above.
as §2

Counter-ions that a name gives are not always drawn.

For the molecule `Cl.N#CC1(c2ccccc2)CCN(CCCNC(=O)N2C(=O)OCC2(c2ccccc2)c2ccccc2)CC1`, the melting point (commonly the temperature, or range, at which the solid turns liquid) lay within 139 to 141 °C.
`CC(=O)OC1(c2ccccc2)CCN(CCCNC(=O)N2C(=O)OC(C)(C)C2c2ccc(F)c(F)c2)CC1.Cl` (stereo not drawn) returned a melting point of 116 to 118 °C.
`CC1(C)OC(=O)N(C(=O)NCC(F)CN2CCC(C#N)(c3ccccc3)CC2)C1c1ccc(F)c(F)c1.Cl` (stereo not drawn) came in with a melting point of 120 to 122 °C.
Same read-out and setting: under `Cl.Cl.O=C1OCC(c2ccc(F)c(F)c2)N1C(=O)N1CCCC(CN2CCC(c3ccccn3)CC2)C1` (stereo not drawn) stands 176 to 178 °C.
On the same count and under the same terms, under `O=C(NCCCN1CCC(c2ccccc2)(c2ccco2)CC1)N1C(=O)OCC1c1ccc(F)c(F)c1` (stereo not drawn) (as salt: HCl) stands 149 to 151 °C; under `N#CC1(c2ccccc2)CCC(N2CCN(C(=O)N3C(=O)OCC3c3ccc(F)c(F)c3)CC2)CC1` (stereo not drawn) (as salt: HCl) [Example 34, 4-{4-[4-(3,4-Difluoro-phenyl)-2-oxo-oxazolidine-3-carbonyl]-piperazin-1-yl}-1-phenyl-cyclohexanecarbonitrile], 148 to 151 °C; under `COc1ccccc1N1CCN(CCCCCN2C(=O)OCC2c2ccc(F)c(F)c2)CC1` (stereo not drawn) (as salt: hydrochloride) [Example 2, 4-(3,4-Difluorophenyl)-3-{5-[4-(2-methoxy-phenyl)-piperazin-1-yl]-pentyl}-oxazolidin-2-one], 174 to 178 °C.
On the same count and under the same terms, the same measure for `COC(=O)C1(c2ccccc2)CCN(CCNC(=O)N2C(=O)OCC2c2ccc(F)c(F)c2)CC1` (stereo not drawn) (as salt: hydrochloride) [Example 21, 4-(3,4-Difluorophenyl)-2-oxo-oxazolidine-3-carboxylic Acid{2-[4-phenylpiperidine-4-(carboxylic Acid Methyl Ester)]ethyl}amide]: 80 to 85 °C.
As to `COc1ccccc1N1CCN(CCCCCN2C(=O)OCC2c2ccc(F)c(F)c2)CC1` (stereo not drawn) [Example 2, 4-(3,4-Difluorophenyl)-3-{5-[4-(2-methoxy-phenyl)-piperazin-1-yl]-pentyl}-oxazolidin-2-one], the inhibition constant (Ki) (as a rule, the dissociation constant of the complex between target and ligand, obtained from inhibition or displacement) came out at 21 nM in data set [1], 11 nM in data set [2] and 0.5 nM in data set [3].
`COC(=O)C1(c2ccccc2)CCN(CCNC(=O)N2C(=O)OCC2c2ccc(F)c(F)c2)CC1` (stereo not drawn) [Example 21, 4-(3,4-Difluorophenyl)-2-oxo-oxazolidine-3-carboxylic Acid{2-[4-phenylpiperidine-4-(carboxylic Acid Methyl Ester)]ethyl}amide]: the inhibition constant (Ki) in data set [1] was 891 nM; in data set [2], 2460 nM; in data set [3], 21 nM.
The molecule `CC1(C)OC(=O)N(C(=O)NCC(O)CN2CCC(C#N)(c3ccccc3)CC2)C1c1ccc(F)c(F)c1.Cl` (stereo not drawn) [Example 28, N3-[3-(4-Cyano-4-phenylpiperidino)-2-hydroxypropyl]-4-(3,4-difluorophenyl)-5,5-dimethyl-2-oxo-oxazolidine-3-carboxamide Hydrochloride] came in with a melting point of 135 to 137 °C. Further, the inhibition constant (Ki) in data set [1] was determined as 4010 nM. For the same molecule, the Ki in data set [2] was determined as 3660 nM. Also, the Ki in data set [3] came to 0.7 nM.
